According to the NIST ThermoML archive (doi:10.1016/j.tca.2007.05.009):
Where “and” joins values, the source holds several entries; their conditions need not be identical. Equal entries are not always repeated. ± gives the expanded uncertainty stated by the source.

Conditions: Crystal

CC/N=C(/N)S [ethylthiourea]
Conditions | vapor or sublimation pressure
356.5 K, Calculated from knudsen effusion weight loss | 0.000282 ± 1.4e-05 kPa
357 K, Calculated from knudsen effusion weight loss | 0.000309 ± 1.6e-05 kPa
360 K, Torsion effusion method | 0.000331 ± 1.7e-05 kPa
360.5 K, Calculated from knudsen effusion weight loss | 0.000417 ± 2.1e-05 kPa
361 K, Torsion effusion method | 0.000437 ± 2.2e-05 kPa
362 K, Calculated from knudsen effusion weight loss | 0.00049 ± 2.5e-05 kPa
363 K, Torsion effusion method | 0.000447 ± 2.2e-05 kPa
364 K, Torsion effusion method | 0.00055 ± 2.8e-05 kPa
365 K, Torsion effusion method | 0.000661 ± 3.3e-05 kPa
366 K, Torsion effusion method | 0.000631 ± 3.2e-05 kPa
366.5 K, Torsion effusion method | 0.000813 ± 4.1e-05 kPa
367 K, Torsion effusion method | 0.000741 ± 3.7e-05 kPa
367.5 K, Calculated from knudsen effusion weight loss | 0.000912 ± 4.6e-05 kPa
368 K, Torsion effusion method | 0.000912 ± 4.6e-05 kPa and 0.000646 ± 3.2e-05 kPa
368.5 K, Torsion effusion method | 0.000794 ± 4e-05 kPa
369 K, Torsion effusion method | 0.000891 ± 4.5e-05 kPa
369.5 K, Torsion effusion method | 0.001175 ± 5.9e-05 kPa
370 K, Torsion effusion method | 0.001047 ± 5.2e-05 kPa and 0.000871 ± 4.4e-05 kPa
370.5 K, Torsion effusion method | 0.001175 ± 5.9e-05 kPa
371 K, Torsion effusion method | 0.001047 ± 5.2e-05 kPa and 0.001288 ± 6.5e-05 kPa and 0.001096 ± 5.5e-05 kPa
372 K, Torsion effusion method | 0.000977 ± 4.9e-05 kPa
373 K, Torsion effusion method | 0.001288 ± 6.5e-05 kPa
374 K, Torsion effusion method | 0.00138 ± 6.9e-05 kPa and 0.001738 ± 8.7e-05 kPa
374.5 K, Torsion effusion method | 0.001349 ± 6.8e-05 kPa
375 K, Torsion effusion method | 0.001862 ± 9.3e-05 kPa [middle of 4 runs]
376 K, Torsion effusion method | 0.001778 ± 8.9e-05 kPa [middle of 4 runs]
377 K, Torsion effusion method | 0.001905 ± 9.5e-05 kPa and 0.001698 ± 8.5e-05 kPa
378 K, Torsion effusion method | 0.002239 ± 0.00011 kPa [middle of 4 runs]
379 K, Torsion effusion method | 0.002692 ± 0.00014 kPa and 0.002884 ± 0.00014 kPa
379.5 K, Torsion effusion method | 0.00263 ± 0.00013 kPa
380 K, Torsion effusion method | 0.002951 ± 0.00015 kPa and 0.002188 ± 0.00011 kPa
380.5 K, Torsion effusion method | 0.002291 ± 0.00012 kPa
